Values of other authors in patent US20260248929A1, “MINOXIDIL-CROSSLINKED INJECTABLE HYDROGELS FOR LOCAL AND SUSTAINED INTRADERMAL DELIVER Y” (THE TRUSTEES OF THE UNIVERSITY OF PENNSYLVANIA, priority 2023, published 2026).

Details: topical application to skin

Nc1cc(N2CCCCC2)nc(N)[n+]1[O-] [minoxidil]
minoxidil absorbed from a topical application: 1%
